The values that follow come from US12312376B2 (priority 2020, dated 2025).

Read-outs that look alike come from different tables or passages of the source.

Data set [1] in a line: Intranasal safety profile of rintatolimod compared with EC90. Format: in vivo, humans. As to conditions: dose concentration 2500 μg/ml (45×EC90).
Data set [2] can be described thus: Clinical trials of tdsRNA (safety). Format: in vivo. The source says:
tdsRNA has undergone extensive clinical and preclinical testing. […] Favorable safety profiles have been seen for intraperitoneal, intravenous, and intranasal routes of administration of tdsRNA.

Data set [3] deals with normal, human-derived tracheal/bronchial epithelial (TBE) cells.
[4] abbreviates: over 1,200 patients, over 100,000 doses administered.

As for rIn•r(C12U)n [Rintatolimod], the “Intranasal tolerability in humans” value in data set [1] was “well tolerated in humans”. Moreover, in data set [2] (setting [4]), the drug-related deaths entry was “no drug-related deaths”. Besides, the “tolerability in clinical trials” value in data set [2] (setting [4]) is reported as “generally well-tolerated”. For the same substance, the “serious adverse events compared to placebo” value in data set [2] (two placebo-controlled, randomized studies) is recorded as “no increase in serious adverse events compared to placebo”. For the same substance, the cellular toxicity in data set [3] (0.5 mg/mL) and in data set [3] (1.5 mg/mL) was 0% each time. Also, the values for the cytotoxic in data set [3] (4.5 mg/mL) and in data set [3] (10 mg/mL) were 12% and 47%, respectively.
